Experiments:
MAO-B = MAO-B (Homo sapiens, UniProt P27338); assay: MAO-B enzymatic activity assay; assay type: biochemical
Procedure: The measurement of the enzymatic activity of all lysyl oxidase family members was based on the detection of hydrogen peroxide with an Amplex‐Red oxidation assay, as described in Zhou et al26 Recombinant human semicarbazide sensitive amine oxidase (SSAO/VAP1), diamine oxidase (DAO) and monoamine oxidases A and B (MAO‐A and MAO‐B) assays were performed as previously described.27 For detailed enzymatic procedures, see supporting information.
Recombinant human semicarbazide sensitive amine oxidase (SSAO/VAP1), diamine oxidase (DAO) and monoamine oxidases A and B (MAO-A and MAO-B) assays were performed as previously described.

[1] = test system: fibrotic marker genes in the liver; assay: CCl4-induced liver fibrosis: mRNA expression of fibrotic markers in whole liver homogenates; assay type: in vivo, Sprague Dawley rats; conditions: PXS-5153A treatment
Procedure: The study was performed by Pharmalegacy with approval from local ethics committee. Sprague Dawley rats were orally administered with 0.25 μL/g Carbon tetrachloride (CCl4) in olive oil solution, starting from day 0, 3 times per week for 6 weeks. Animals were killed 48 hours after the last CCl4 administration. PXS‐5153A was given by oral gavage after 3 weeks of CCl4 administration and continued throughout the remainder of the study at 3 mg/kg (low dose) or 10 mg/kg (high dose) once a day or 10 mg/kg (high dose) three times a week. Alanine aminotransferase (ALT) and aspartate aminotransferase (AST) levels were assessed in the plasma. One lobe of the liver tissue was fixed in 10% formalin, stained for Sirius red and the percentage coverage area was measured. The remainder of the liver was snap frozen and used for protein, hydroxyproline and crosslink analysis.
Total RNA was extracted with the PureLink RNA Mini Kit according to the manufacturer's instructions (Ambion), followed by the cDNA synthesis using SuperScript VILO cDNA Synthesis Kit (Life technologies). Gene expression was measured by the 2^−ΔΔCT method using ABI7500 (Applied Biosystems) with the ABI TaqMan primer sets as specified in the supporting information.
Data was normalised to expression of the internal quantitative control (GAPDH) and expressed as the fold-change compared to the Sham treatment group.

LOXL2 = target: T1, LOXL2 (Homo sapiens, UniProt Q9Y4K0); assay: Time dependency of LOXL2 inhibition; assay type: biochemical
T1 sequence (Q9Y4K0 26-774): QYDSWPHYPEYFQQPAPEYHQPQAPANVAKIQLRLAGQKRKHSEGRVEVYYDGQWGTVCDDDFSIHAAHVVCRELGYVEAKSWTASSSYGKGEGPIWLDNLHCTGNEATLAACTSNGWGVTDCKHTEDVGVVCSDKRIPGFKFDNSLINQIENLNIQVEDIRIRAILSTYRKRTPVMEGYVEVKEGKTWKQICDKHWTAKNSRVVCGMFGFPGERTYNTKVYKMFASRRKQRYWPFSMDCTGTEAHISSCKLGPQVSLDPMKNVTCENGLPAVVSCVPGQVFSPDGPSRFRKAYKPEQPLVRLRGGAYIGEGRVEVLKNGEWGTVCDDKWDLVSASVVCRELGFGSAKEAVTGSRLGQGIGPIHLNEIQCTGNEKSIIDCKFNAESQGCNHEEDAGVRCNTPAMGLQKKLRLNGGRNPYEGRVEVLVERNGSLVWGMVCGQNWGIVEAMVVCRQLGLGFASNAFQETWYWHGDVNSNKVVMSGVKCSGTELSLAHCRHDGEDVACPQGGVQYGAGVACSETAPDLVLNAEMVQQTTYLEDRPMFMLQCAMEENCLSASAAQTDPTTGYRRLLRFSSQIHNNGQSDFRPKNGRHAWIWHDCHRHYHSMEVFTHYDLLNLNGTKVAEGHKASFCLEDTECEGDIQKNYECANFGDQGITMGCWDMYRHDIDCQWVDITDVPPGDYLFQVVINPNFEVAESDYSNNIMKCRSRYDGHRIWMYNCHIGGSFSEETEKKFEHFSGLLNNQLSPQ
Procedure: The measurement of the enzymatic activity of all lysyl oxidase family members was based on the detection of hydrogen peroxide with an Amplex-Red oxidation assay, as described in Zhou et al.[1]; miniaturised in 384 well format, with the appropriate combination of substrate and assay buffer for each individual enzyme. After a 30 minute pre-incubation of the enzyme at 37 °C with the test compound (or with different incubation times for the time-dependency assay), one volume of reaction mixture containing 120 μM Amplex Red (AR) (Life Technologies), 1.5 U/mL horseradish peroxidase (HRP) (Sigma-Aldrich) and the specific substrate was added to each sample. The relative fluorescence units (RFU) were then measured every 2.5 minutes for 30 minutes at 37°C, excitation 565 nm and emission 590, on a BMG Clariostar Microplate Reader. All the substrates were used at concentrations corresponding to their Km towards the corresponding enzyme, or with a range of different concentrations for the substrate competition experiments.
Time-dependent inhibition of the target by the compound was assessed by pre-incubation of 25 uL of target enzyme at 37 °C in a 384-well plate. An 11-point dilution was carried out of the test compound followed by its addition at 0.5 uL to the enzyme plate at different time points (0 minutes, 15 minutes, 30 minutes, 1hour, 2 hours and 4 hours unless otherwise stated in the graph). At the last time point, the reaction mixture was added and the relative fluorescence was measured.

MAO-B, sequence (P27338 whole entry): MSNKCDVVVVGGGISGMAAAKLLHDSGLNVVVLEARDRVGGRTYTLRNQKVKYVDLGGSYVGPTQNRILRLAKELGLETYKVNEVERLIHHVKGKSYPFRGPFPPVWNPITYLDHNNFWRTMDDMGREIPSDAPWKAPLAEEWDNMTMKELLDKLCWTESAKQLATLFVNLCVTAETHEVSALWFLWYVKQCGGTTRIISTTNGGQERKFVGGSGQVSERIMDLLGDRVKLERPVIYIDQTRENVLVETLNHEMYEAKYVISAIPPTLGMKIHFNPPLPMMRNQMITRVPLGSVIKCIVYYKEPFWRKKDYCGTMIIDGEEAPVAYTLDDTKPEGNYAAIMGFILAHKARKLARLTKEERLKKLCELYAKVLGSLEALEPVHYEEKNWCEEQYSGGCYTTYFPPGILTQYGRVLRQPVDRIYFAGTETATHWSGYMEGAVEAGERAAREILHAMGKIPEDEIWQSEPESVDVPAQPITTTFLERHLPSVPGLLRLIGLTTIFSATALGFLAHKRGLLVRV

## Cc1c(-c2cccc(S(=O)(=O)N(C)C)c2)c2ncccc2n1C/C(F)=C/CN.Cl.Cl [PXS-5153A]
MAO-B
  IC50: > 30 µM
[1]
  induction of key fibrotic marker genes in the liver: suppressed the induction
LOXL2; at 10xIC50
  time to complete inhibition of the enzyme: ≤ 15 min
LOXL2; judged by the shift in the concentration response curves
  time until enzymatic activity almost entirely blocked: ≤ 15 min
LOXL2; longer incubation with the enzyme
  time-dependent LOXL2 inhibition: increased potency upon longer incubation with the enzyme

From PMC6378217, “The lysyl oxidase like 2/3 enzymatic inhibitor, PXS‐5153A, reduces crosslinks and ameliorates fibrosis” (Journal of Cellular and Molecular Medicine, 2018)
